Reference: paper PMC5476563, “Structure-Guided Design of C4-alkyl-1,4-dihydro-2H-pyrimido[4,5-d][1,3]oxazin-2-ones as Potent and Mutant-Selective Epidermal Growth Factor Receptor (EGFR) L858R/T790M Inhibitors” (Scientific Reports, 2017)
“And” between values parts separate entries of the source, which are not always exact repeats. Identical values can stand only once.

Columns and labels:
EGFR^WT = molecular target: T1, EGFR^WT (Homo sapiens, UniProt P00533); experiment: ELISA-based EGFR-TK enzymatic activity assay (WT); assay type: biochemical; details: mean ± SD, at least three determinations, read-out: Enzyme Inhibitory Activity (IC50, nM) WT
T1 construct: Kinases domain of EGFR^L858R/T790M and EGFR^WT were expressed by using the Bac-to-Bac™ baculovirusexpression system; made in house
T1 sequence (P00533 712-979 limits assumed): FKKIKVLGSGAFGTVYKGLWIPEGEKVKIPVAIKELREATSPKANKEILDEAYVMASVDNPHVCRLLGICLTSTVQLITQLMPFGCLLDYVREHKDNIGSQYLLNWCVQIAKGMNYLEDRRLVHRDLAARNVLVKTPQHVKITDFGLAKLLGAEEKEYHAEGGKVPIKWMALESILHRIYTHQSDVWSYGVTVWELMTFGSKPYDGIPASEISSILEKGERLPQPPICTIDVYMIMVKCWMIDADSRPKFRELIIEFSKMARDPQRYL
Description: In vitro antiproliferation activities of the compounds were examined through using the sulforhodamine B (SRB) colourimetric assay.
(§1) The enzymatic activity assay was evaluated by using the well-established ELISA-based assay. […] The detailed experiment was performed according to the published literature.

[1] = tested on: A431 cells (expressing EGFR^WT); experiment: Sulforhodamine B (SRB) cellular antiproliferation assay, A431; assay type: cell-based; details: Homo sapiens, A-431, 72 h, mean ± SD, read-out: Cellular Antiproliferative Activity (IC50, nM) A431
Text: (§2) Having explored potent inhibition and obvious selectivity of EGFR kinases by introduction of alkyl groups to C4-position to the 1,4-dihydro-2H-pyrimido[4,5-d][1,3]oxazin-2-one ring, we subsequently evaluated their anti-proliferative activities in H1975 cells (expressing EGFR^L858R/T790M) and A431 cells (expressing EGFR^WT) in vitro by using the sulforhodamine B (SRB) colourimetric assay. The anti-proliferative activities of our designed compounds against H1975 and A431 cell lines range from 135 nM to more than 9 μM and from 554 nM to more than 7 μM, respectively (Fig. 5). Additionally, the selectivity at the cellular level is from 0.7 to 9.4-fold.
(§3) In vitro cellular antiproliferation activities of the designed compounds against H1975 and A431 cell lines were examined by using the well-established sulforhodamine B (SRB) colorimetric assay. The detailed experiment was performed according to the published literature. Briefly, H1975 and A431 cells were seeded in 96-well plates, and allowed to adhere overnight followed by treated with gradient concentrations of the test compounds for 72 h. […] The IC50 values were obtained by using the Logit method and reported as the mean ± SD from three independent determinations.

EGFR^L858R/T790M [2] = molecular target: T2, EGFR^L858R/T790M (Homo sapiens, UniProt P00533, L858R/T790M); experiment: ELISA-based EGFR-TK enzymatic activity assay (dual mutant); assay type: biochemical; details: for IC50: ELISA-based EGFR-TK assay, mean ± SD, at least three determinations, read-out: Enzyme Inhibitory Activity (IC50, nM) L858R/T790M; for Enzyme Selectivity WT:DM: ratio IC50 EGFR^WT : EGFR^L858R/T790M
T2 construct: Kinases domain of EGFR^L858R/T790M and EGFR^WT were expressed by using the Bac-to-Bac™ baculovirusexpression system; made in house
T2 sequence (P00533 712-979 T790M/L858R limits assumed): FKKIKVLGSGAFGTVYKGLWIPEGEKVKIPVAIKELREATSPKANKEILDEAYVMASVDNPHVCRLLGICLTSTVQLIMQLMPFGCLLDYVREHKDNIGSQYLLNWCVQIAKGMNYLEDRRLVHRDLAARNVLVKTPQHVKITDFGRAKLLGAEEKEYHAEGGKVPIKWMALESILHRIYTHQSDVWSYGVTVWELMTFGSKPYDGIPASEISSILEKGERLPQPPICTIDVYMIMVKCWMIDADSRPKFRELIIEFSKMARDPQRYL
Description: as §1

[3] = tested on: H1975 cells (expressing EGFR^L858R/T790M); experiment: Sulforhodamine B (SRB) cellular antiproliferation assay, H1975; assay type: cell-based; details: for IC50: Homo sapiens, NCI-H1975, SRB assay, 72 h, mean ± SD, read-out: Cellular Antiproliferative Activity (IC50, nM) H1975; for Cellular Selectivity A431:H1975: ratio IC50 A431 : H1975
Text: as §2, §3

[4] = tested on: H1975 xenograft driven by EGFR^L858R/T790M; experiment: In vivo antitumor efficacy, H1975 NSCLC xenograft mouse model; design: species or system nude mice; details: 14 days; for tumor growth inhibition (TGI): 50 mg/kg orally once per day, final day vs vehicle, P < 0.05
Description: H1975 cells were implanted as described in Methods. […] H1975 xenograft mouse model tumor volumes (A) and body weights (B) were recorded every two or three days. All values represent mean ± SEM.
All experimental procedures involving animals were performed in accordance with the ethical guidelines from Shanghai Laboratory Animal Public Service Center and Animal Ethics Committee of the East China University of Science and Technology. The whole experimental protocol was also approved by the Animal Ethics Committee of the East China University of Science and Technology. All 4–6 weeks old nude mice were purchased from Shanghai Slac Laboratory Animal Co. Ltd (The license of experimental animal: SCXK (shanghai) 2012–0002). The mice were maintained under the 12 hour light/dark cycles condition in the specific pathogen free (SPF) cleanroom with fresh air (more than 50%), appropriate temperature (22–26 °C) and humidness (40–60%). All materials and containers were disinfected and sterilized before use. Nude mice, aged 4–6 weeks, were inoculated subcutaneously into the right flank with H1975 NSCLC cells (approximately 2 × 10^6 cells/mouse). When the tumor size reached a volume of ~200−400 mm^3, animals were randomly assigned into control and treated groups (n = 3/group). […] The sizes of tumor volume (V) were measured every two or three days by using vernier caliper, and were calculated with the formula V = (L × W^2)/2, where L and W stands for length and width, respectively.

[5] = tested on: phosphorylation of EGFR^L858R/T790M, AKT and ERK in H1975 cells; experiment: Western blot analysis of EGFR and downstream signaling phosphorylation, H1975; assay type: cell-based; details: 2 h incubation, EGF 50 ng/mL 10 min
Description: (§4) Cells were starved in serum-free medium for 24 h before incubation of indicated concentrations of compounds 20a and 8 (positive control) and harvested after stimulation by EGF (50 ng/mL) for 10 min. Phosphorylation of EGFR and downstream signaling substrates was examined by Western Blot analysis. Blot source data is provided in Supplementary Fig. S1.
(§5) Western blot analysis was performed with standard procedures. Briefly, H1975 and A431 cell lines were seeded in six-well plates, starved in serum-free medium for 24 h, followed by incubation for 2 h in the presence of different concentrations of compounds 20a and 8 (as positive control). Cells were stimulated by the addition of EGF (50 ng/mL, R&D Systems, US) for 10 min, then washed with PBS and lysed in SDS lysis buffer. Antibodies against p-EGFR (Y1068; #3777 S), EGFR (#4267 S), p-ERK (T202/Y204; #4370 L), ERK (#4695 S), p-AKT (Ser473), AKT and Tubulin were used (Cell Signaling Technologies, Cambridge, MA).

[6] = tested on: activation of EGFR^WT in A431 cells; experiment: Western blot analysis of EGFR phosphorylation, A431; assay type: cell-based
Description: as §4, §5

EGFR^L858R/T790M [7] = molecular target: T2, EGFR^L858R/T790M; design: method as in PMID 27396610; details: previously reported; cited from earlier work

Row | IC50 (EGFR^WT) [nM] | IC50 [1] [nM] | IC50 (EGFR^L858R/T790M [2]) [nM] | Enzyme Selectivity WT:DM (EGFR^L858R/T790M [2]) | IC50 [3] [nM] | SMILES | Cellular Selectivity A431:H1975 [3] [fold] | tumor growth inhibition (TGI) [4] [%] | concentration inhibiting ERK phosphorylation [5] [nM] | concentration inhibiting phosphorylation of AKT [5] [nM] | concentration inhibiting phosphorylation of EGFR^L858R/T790M [5] [nM] | effect on body weight / tolerability ([4]; 50 mg/kg/day orally) | concentration at which obvious effect on EGFR activation appears [6] [µM] | selectivity EGFR^L858R/T790M kinase over EGFR^WT kinase (EGFR^L858R/T790M [7]) [fold]
1 | 23 ± 10 | 554 ± 285 | 6.1 | 4–7 fold and 3.8 fold | 200 ± 83 | C=CC(=O)Nc1cccc(N2C(=O)OC(CC)c3cnc(Nc4ccc(N5CCN(C)CC5)cc4OC)nc32)c1 (centres unmarked) [16b, N-(3-(4-Ethyl-7-((2-methoxy-4-(4-methylpiperazin-1-yl)phenyl)amino)-2-oxo-2H-pyrimido[4,5-d][1,3]oxazin-1(4H)-yl)phenyl)acrylamide] | 2.8 | – | – | – | – | – | – | –
2 | – | 1120 ± 117 | – | – | 73 ± 21 | C=CC(=O)Nc1cccc(Nc2nc(Nc3ccc(N4CCN(C(C)=O)CC4)cc3OC)ncc2C(F)(F)F)c1 [compound 7, CO-1686, reference compound] | – | 72 | – | – | – | – | – | –
3 | > 1000 | 6400 ± 349 | > 1000 | – | 9390 ± 1740 | C=CC(=O)Nc1cccc(N2C(=O)OC(CCC)(CCC)c3cnc(Nc4ccc(N5CCN(C)CC5)cc4OC)nc32)c1 [20c, N-(3-(7-((2-Methoxy-4-(4-methylpiperazin-1-yl)phenyl)amino)-2-oxo-4,4-dipropyl-2H-pyrimido[4,5-d][1,3]oxazin-1(4H)-yl)phenyl)acrylamide] | 0.7 | – | – | – | – | – | – | –
4 | 183 ± 47 | 1160 ± 279 | 217 ± 86 | 0.8 fold | 1110 ± 748 | C=CC(=O)Nc1cccc(N2C(=O)OC(C(C)C)c3cnc(Nc4ccc(N5CCN(C)CC5)cc4OC)nc32)c1 (centres unmarked) [16d, N-(3-(7-((2-Methoxy-4-(4-methylpiperazin-1-yl)phenyl)amino)-2-oxo-4-isopropyl-2H-pyrimido[4,5-d][1,3]oxazin-1(4H)-yl)phenyl)acrylamide] | 1.0 | – | – | – | – | – | – | –
5 | 38 | 821 ± 162 | 5.4 | 4–7 fold and 7 fold | 400 ± 257 | C=CC(=O)Nc1cccc(N2C(=O)OC(C)c3cnc(Nc4ccc(N5CCN(C)CC5)cc4OC)nc32)c1 (centres unmarked) [16a, N-(3-(7-((2-Methoxy-4-(4-methylpiperazin-1-yl)phenyl)amino)-4-methyl-2-oxo-2H-pyrimido[4,5-d][1,3]oxazin-1(4H)-yl)phenyl)acrylamide] | 2.1 | – | – | – | – | – | – | –
6 | – | – | – | – | – | C=CC(=O)Nc1cccc(-n2c(=O)c(=O)n(C)c3cnc(Nc4ccc(N5CCN(C)CC5)cc4OC)nc32)c1 [compound 9] | – | – | – | – | – | – | – | 101
7 | > 1000 | 7040 ± 455 | > 1000 | – | 3710 ± 1370 | C=CC(=O)Nc1cccc(N2C(=O)OC(CC)(CC)c3cnc(Nc4ccc(N5CCN(C)CC5)cc4OC)nc32)c1 [20b, N-(3-(4,4-Diethyl-7-((2-methoxy-4-(4-methylpiperazin-1-yl)phenyl)amino)-2-oxo-2H-pyrimido[4,5-d][1,3]oxazin-1(4H)-yl)phenyl)acrylamide] | 1.9 | – | – | – | – | – | – | –
8 | 224 ± 41 | 2110 ± 877 | 158 ± 27 | 1.4 fold | 1340 ± 791 | C=CC(=O)Nc1cccc(N2C(=O)OC(CCC)c3cnc(Nc4ccc(N5CCN(C)CC5)cc4OC)nc32)c1 (centres unmarked) [16c, N-(3-(7-((2-Methoxy-4-(4-methylpiperazin-1-yl)phenyl)amino)-2-oxo-4-propyl-2H-pyrimido[4,5-d][1,3]oxazin-1(4H)-yl)phenyl)acrylamide] | 1.6 | – | – | – | – | – | – | –
9 | 24 | 1070 ± 241 | 7.3 | 3.3 fold | 222 ± 84 | C=CC(=O)Nc1cccc(N2C(=O)OCc3cnc(Nc4ccc(N5CCN(C)CC5)cc4OC)nc32)c1 [16e, N-(3-(7-((2-Methoxy-4-(4-methylpiperazin-1-yl)phenyl)amino)-2-oxo-2H-pyrimido[4,5-d][1,3]oxazin-1(4H)-yl)phenyl)acrylamide] | 4.8 | – | – | – | – | – | – | –

Row | SMILES | IC50 (EGFR^WT) [nM] | IC50 [1] [nM] | IC50 (EGFR^L858R/T790M [2]) [nM] | Enzyme Selectivity WT:DM (EGFR^L858R/T790M [2]) | IC50 [3] [nM] | Cellular Selectivity A431:H1975 [3] [fold] | tumor growth inhibition (TGI) [4] [%] | concentration inhibiting ERK phosphorylation [5] [nM] | concentration inhibiting phosphorylation of AKT [5] [nM] | concentration inhibiting phosphorylation of EGFR^L858R/T790M [5] [nM] | effect on body weight / tolerability ([4]; 50 mg/kg/day orally) | concentration at which obvious effect on EGFR activation appears [6] [µM] | selectivity EGFR^L858R/T790M kinase over EGFR^WT kinase (EGFR^L858R/T790M [7]) [fold]
10 | C=CC(=O)Nc1cccc(N2C(=O)OC(C)(C)c3cnc(Nc4ccc(N5CCN(C)CC5)cc4OC)nc32)c1 [20a, N-(3-(7-((2-Methoxy-4-(4-methylpiperazin-1-yl)phenyl)amino)-4,4-dimethyl-2-oxo-2H-pyrimido[4,5-d][1,3]oxazin-1(4H)-yl)phenyl)acrylamide] | 156 | 1270 | 4.5 | ~35 fold | 135 | 9.4 | 71 | 100 | 10 | 10 | no obvious effect on the body weight | 1 | –
